ChEMBL document CHEMBL1201862, “PubChem BioAssay data set” (2004)
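1) Cells in 96-well plates. 2) Compound, 48 h, 5 concentrations. 3) Linear interpolation between surrounding doses. 4) Unreached endpoint = highest concentration. At the GI50, growth is halved.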 The source made the active and inactive calls. Rule as the data show it: active = GI50 up to about 1.1 µM and inactive = higher.

Key:
Assay in all cases: NCI anticancer screen, dose series, 48 h
SF-539 = system: SF-539
SK-MEL-5 = system: SK-MEL-5
HL-60 = system: HL-60
MOLT-4 = system: MOLT-4
SK-MEL-2 = system: SK-MEL-2
SNB-78 = system: SNB-78
786-0 = system: 786-0
COLO 205 = system: COLO 205
M14 = system: M14
HOP-62 = system: HOP-62
A549 = system: A549
TK-10 = system: TK-10
UACC-257 = system: UACC-257
KM12 = system: KM12
SR = system: SR
EKVX = system: EKVX
KM-20L2 = system: KM-20L2
SF-295 = system: SF-295
SW-620 = system: SW-620
RPMI-8226 = system: RPMI-8226
IGROV-1 = system: IGROV-1
HCT-15 = system: HCT-15
OVCAR-4 = system: OVCAR-4
UACC-62 = system: UACC-62
CAKI-1 = system: CAKI-1
DMS-273 = system: DMS-273
M19-MEL = system: M19-MEL
HCT-116 = system: HCT-116
SF-268 = system: SF-268
SNB-75 = system: SNB-75
HOP-92 = system: HOP-92
NCI-H23 = system: NCI-H23
SK-OV-3 = system: SK-OV-3
CCRF-CEM = system: CCRF-CEM
DMS-114 = system: DMS-114
LOX IMVI = system: LOX IMVI
DLD-1 = system: DLD-1
OVCAR-8 = system: OVCAR-8
A498 = system: A498
ACHN = system: ACHN
NCI-H460 = system: NCI-H460
LXFL 529 = system: LXFL 529
XF498 = system: XF498
OVCAR-3 = system: OVCAR-3
HCC 2998 = system: HCC 2998
SK-MEL-28 = system: SK-MEL-28
SN12C = system: SN12C
SNB-19 = system: SNB-19
UO-31 = system: UO-31
U-251 = system: U-251
K562 = system: K562
RXF 393 = system: RXF 393
OVCAR-5 = system: OVCAR-5
Malme-3M = system: Malme-3M
HT-29 = system: HT-29
NCI-H522 = system: NCI-H522
HOP-18 = system: HOP-18

Measured: GI50

CC1(C)CCC(Sc2ccccc2)O1 (centres undefined)
> 100 µM: HCT-15
inactive: SF-539 > 100 µM | SK-MEL-5 > 100 µM | HL-60 > 100 µM | MOLT-4 > 100 µM | SK-MEL-2 > 100 µM | SNB-78 > 100 µM | 786-0 > 100 µM | COLO 205 > 100 µM | M14 > 100 µM | HOP-62 > 100 µM | A549 > 100 µM | TK-10 > 100 µM | UACC-257 > 100 µM | KM12 > 100 µM | SR > 100 µM | EKVX > 100 µM | KM-20L2 > 100 µM | SF-295 > 100 µM | SW-620 > 100 µM | RPMI-8226 > 100 µM | IGROV-1 > 100 µM | OVCAR-4 > 100 µM | UACC-62 > 100 µM | CAKI-1 > 100 µM | DMS-273 > 100 µM | M19-MEL > 100 µM | HCT-116 > 100 µM | SF-268 > 100 µM | SNB-75 92 µM | HOP-92 > 100 µM | NCI-H23 > 100 µM | SK-OV-3 > 100 µM | CCRF-CEM > 100 µM | DMS-114 > 100 µM | LOX IMVI > 100 µM | DLD-1 > 100 µM | OVCAR-8 > 100 µM | A498 > 100 µM | ACHN > 100 µM | NCI-H460 > 100 µM | LXFL 529 > 100 µM | XF498 > 100 µM | OVCAR-3 > 100 µM | HCC 2998 > 100 µM | SK-MEL-28 > 100 µM | SN12C > 100 µM | SNB-19 > 100 µM | UO-31 > 100 µM | U-251 > 100 µM | K562 > 100 µM | RXF 393 > 100 µM

CC(=O)OCC1OC(OC(C)=O)C(NC#N)C(OC(C)=O)C1OC(C)=O (centres undefined)
inactive: SF-539 > 100 µM | SK-MEL-5 73.1 µM | OVCAR-5 > 100 µM | HL-60 > 100 µM | Malme-3M > 100 µM | MOLT-4 86.5 µM | SK-MEL-2 50.7 µM | 786-0 > 100 µM | COLO 205 > 100 µM | M14 97.7 µM | HOP-62 > 100 µM | A549 > 100 µM | TK-10 > 100 µM | KM12 > 100 µM | SR 73.5 µM | SF-295 80.4 µM | SW-620 > 100 µM | RPMI-8226 67.8 µM | IGROV-1 > 100 µM | OVCAR-4 > 100 µM | UACC-62 > 100 µM | CAKI-1 > 100 µM | DMS-273 > 100 µM | HT-29 > 100 µM | M19-MEL > 100 µM | HCT-116 > 100 µM | SF-268 > 100 µM | SNB-75 > 100 µM | HOP-92 > 100 µM | NCI-H23 > 100 µM | SK-OV-3 > 100 µM | CCRF-CEM 43.7 µM | DMS-114 > 100 µM | LOX IMVI 39.2 µM | DLD-1 > 100 µM | OVCAR-8 > 100 µM | A498 > 100 µM | ACHN 49.7 µM | NCI-H460 68.1 µM | LXFL 529 67.9 µM | OVCAR-3 > 100 µM | HCC 2998 > 100 µM | SK-MEL-28 > 100 µM | SN12C > 100 µM | NCI-H522 > 100 µM | SNB-19 > 100 µM | HOP-18 > 100 µM | UO-31 36.1 µM | U-251 > 100 µM | K562 > 100 µM | RXF 393 > 100 µM
> 100 µM: HCT-15
